In US20230293475A1, “METHODS OF PROVIDING SO[…] TO SUBJECTS WITH IMPAIRED RENAL FUNCTION” (Axsome Malta Ltd., priority 2020, published 2023):
Read-outs that look alike come from different tables or passages of the source.

Tests used:
[1] = Phase 1 single-dose study, plasma PK of solriamfetol by level of renal function; type: in vivo, human; conditions: for AUCt, percent ratio (90% confidence interval) of geometric mean relative to Group 1 / AUC∞, percent ratio (90% confidence interval) of geometric mean relative to Group 1 / Cmax, percent ratio (90% confidence interval) of geometric mean relative to Group 1 / AUC(0-t) / AUC(0-inf) / Cmax / Vd/F / Tmax / half-life: single 75-mg dose; for AUC(0-t) / AUC(0-inf) / Cmax / Vd/F / Tmax / half-life: both sexes, human, plasma, oral, 75 mg; for Vd/F: read-out: Vd/F, mean ± SD (%CV); for Tmax: read-out: tmax, median (min, max); for half-life: read-out: t½, mean ± SD (%CV) (converted)
Experimental: In healthy subjects with normal renal function, solriamfetol HCl is renally excreted ~90% unchanged within 48 hours of administration. Thus, renal impairment, as well as hemodialysis in individuals with end-stage renal disease (ESRD), could affect the PK of solriamfetol HCl. To ascertain the precise impact of renal impairment and hemodialysis on pharmacokinetics and safety of solriamfetol RCl, a Phase 1, parallel-group, open-label, single-dose study was conducted at 2 U.S. sites. The protocol was approved by the IntegReview Institutional Review Board (Austin, Texas), and the study was conducted in compliance with the protocol, the Guideline for Good Clinical Practice E6; the US Code of Federal Regulations pertaining to conduct and reporting of clinical studies; the Clinical Trials Directive of the European Medicines Agency (Directive 2001/20/EC); and the Declaration of Helsinki. Written informed consent was obtained from each subject before enrollment in the study and before performance of any study-related procedure. See, also, Zomorodi K, Chen D, Lee L, Lasseter K, Marbury T. An Open-Label, Single-Dose, Phase 1 Study of the Pharmacokinetics and Safety of JZP-110 in Subjects With Normal or Impaired Renal Function and With End-Stage Renal Disease Requiring Hemodialysis [abstract]. Sleep. 2017;40 (suppl):A382-383.
Eligible participants were men and non-pregnant, non-lactating women between the ages of 18 and 80 years, with a body mass index (BMI) ≤ 35 kg/m^2. Women of childbearing potential were required to have used a medically accepted method of birth control for at least 2 months prior to the first dose of study drug, with continued use throughout the study period and for 30 days after study completion.
Eligible participants were assigned to 1 of 5 groups according to renal disease status as measured by the estimated glomerular filtration rate (eGFR) on the day prior to dosing, calculated using the Modification in Diet in Renal Disease equation. Group 1 consisted of healthy participants with normal renal function (eGFR ≥ 90 mL/min/1.73 m^2) and served as the control group. Groups 2, 3, and 4 had mild, moderate, and severe renal impairment based on eGFRs of 60-89, 30-59, and < 30 mL/min/1.73 m^2, respectively. Group 5 consisted of participants with ESRD who required ≥ 3 hemodialysis treatments per week for the preceding 3 months. […] Group 1 was enrolled last to facilitate matching the mean age, BMI, and sex distribution of Groups 2-5.
Groups 1-4 received one dose of solriamfetol HCl (89.3 mg; equivalent to 75-mg solriamfetol) on day 1; Group 5 received one dose equivalent to 75-mg dose on day 1 followed by 4-hour hemodialysis (designated Group 5.2), and one dose equivalent to 75-mg solriamfetol on day 8 without hemodialysis (designated Group 5.1). All doses were administered on an empty stomach following an overnight fast except for participants in Group 5, who received a standardized snack on day 7 and breakfast early on day 8 before starting an 8-hour fast. Participants remained fasting for 4 hours after administration, with water allowed except for 1 hour before and after dosing.
Serial blood samples of approximately 4 mL were collected within 30 minutes prior to dosing and at 0.5, 1, 1.5, 2, 2.5, 3, 4, 6, 8, 10, 12, 24, 36, and 48 hours post-dose in Groups 1-3, with continued sampling at 60 and 72 hours post-dose in Groups 4 and 5. All blood samples were collected into labeled K2EDTA tubes by direct venipuncture or indwelling catheter and kept on ice until the samples were centrifuged within 30 minutes of collection at approximately 2500 rpm (1315 × g) at 4° C. for 10 minutes. The plasma was transferred into polypropylene tubes for freezing and storage at -70° C. until analysis.
Bioanalytical analyses were performed by a central laboratory (KCAS, LLC, Shawnee, Kansas) using validated proprietary methods that included extraction/derivatization and liquid chromatography-tandem mass spectrometry (LC-MS/MS). […]

[2] = 12-week placebo-controlled trials comparing various doses; cited from earlier work
[3] = Group 3 moderate renal impairment
[4] = Group 4 severe renal impairment
[5] = Group 5.1 ESRD without hemodialysis
[6] = Group 5.2 ESRD with hemodialysis
[7] = Group 5.1 ESRD without hemodialysis, n=3
[8] = Group 5.2 ESRD with hemodialysis, n=6

NC(=O)OC[C@H](N)Cc1ccccc1 [solriamfetol, [R]-2-amino-3-phenylpropylcarbamate]
Cmax, lower relative to normal renal function ([1]; ESRD requiring hemodialysis): ≤ 19% | overall exposure, fold increase relative to normal renal function ([1]; ESRD requiring hemodialysis): ≥ 4 fold | t½, fold longer relative to normal renal function ([1]; ESRD requiring hemodialysis): ≥ 13 fold | Cmax, higher versus Group 1 ([1]; Group 2 mild renal impairment): approximately 6% | total exposure (AUC∞), higher relative to Group 1 ([1]; Group 2 mild renal impairment): 53% | AUCt, percent ratio (90% confidence interval) of geometric mean relative to Group 1 ([1]; Group 2 mild renal impairment): 158.3 (97.5, 256.9) % | AUC∞, percent ratio (90% confidence interval) of geometric mean relative to Group 1 ([1]; Group 2 mild renal impairment): 152.9 (92.9, 251.7) % | Cmax, percent ratio (90% confidence interval) of geometric mean relative to Group 1 ([1]; Group 2 mild renal impairment): 105.9 (80.6, 139.0) % | Cmax, higher versus Group 1 [1, 3]: ~4% | total exposure (AUC∞), higher relative to Group 1 [1, 3]: 129% | AUCt, percent ratio (90% confidence interval) of geometric mean relative to Group 1 [1, 3]: 219.2 (133.7, 359.6) % | AUC∞, percent ratio (90% confidence interval) of geometric mean relative to Group 1 [1, 3]: 229.2 (135.6, 387.4) % | Cmax, percent ratio (90% confidence interval) of geometric mean relative to Group 1 [1, 3]: 104.3 (78.4, 138.9) % | Cmax, higher versus Group 1 [1, 4]: ~11% | total exposure (AUC∞), higher relative to Group 1 [1, 4]: 339% | AUCt, percent ratio (90% confidence interval) of geometric mean relative to Group 1 [1, 4]: 380.4 (208.4, 694.4) % | AUC∞, percent ratio (90% confidence interval) of geometric mean relative to Group 1 [1, 4]: 438.6 (217.3, 885.3) % | Cmax, percent ratio (90% confidence interval) of geometric mean relative to Group 1 [1, 4]: 110.5 (81.1, 150.6) % | overall exposure (AUCt), fold higher relative to Group 1 ([1]; Group 5.1 ESRD without dialysis on day 8): approximately 5 fold | Cmax, lower versus Group 1 [1, 5]: approximately 3% | exposure, higher versus Group 1 [1, 5]: approximately 518% | AUCt, percent ratio (90% confidence interval) of geometric mean relative to Group 1 [1, 5]: 617.8 (385.3, 990.8) % | AUC∞, percent ratio (90% confidence interval) of geometric mean relative to Group 1 [1, 5]: 1290.6 (542.78, 3068.5) % | Cmax, percent ratio (90% confidence interval) of geometric mean relative to Group 1 [1, 5]: 97.2 (76.1, 124.1) % | overall exposure (AUCt), fold higher relative to Group 1 ([1]; Group 5.2 ESRD with dialysis on day 1): about 4 fold | Cmax, lower versus Group 1 [1, 6]: ~19% | exposure, higher versus Group 1 [1, 6]: ~357% | AUCt, percent ratio (90% confidence interval) of geometric mean relative to Group 1 [1, 6]: 457.2 (296.6, 704.9) % | AUC∞, percent ratio (90% confidence interval) of geometric mean relative to Group 1 [1, 6]: 1496.5 (748.7, 2991.2) % | Cmax, percent ratio (90% confidence interval) of geometric mean relative to Group 1 [1, 6]: 80.9 (63.4,103.1) % | AUC(0-t) ([1]; Group 1 normal renal function, over 48 h, read-out: AUCt, mean ± SD (%CV)): 4850 ± 3450 ng·h/mL | AUC(0-t) ([1]; Group 1 normal renal function, over 48 hours, read-out: AUCt, geometric LS mean (converted)): 4090 ng·h/mL | AUC(0-inf) ([1]; Group 1 normal renal function, read-out: AUC∞, geometric LS mean): 4360 ng·h/mL | AUC(0-inf) ([1]; Group 1 normal renal function, read-out: AUC∞, mean ± SD (%CV)): 5270 ± 4100 ng·h/mL | Cmax ([1]; Group 1 normal renal function, read-out: Cmax, geometric LS mean): 482 ng/mL | Cmax ([1]; Group 1 normal renal function, read-out: Cmax, mean ± SD (%CV)): 499 ng/mL | Vd/F ([1]; Group 1 normal renal function): 164 L | Tmax ([1]; Group 1 normal renal function): 1.3 h | half-life ([1]; Group 1 normal renal function): 7.6 ± 5.1 h | AUC(0-t) ([1]; Group 2 mild renal impairment, over 48 h, read-out: AUCt, mean ± SD (%CV)): 6610 ng·h/mL | AUC(0-t) ([1]; Group 2 mild renal impairment, over 48 hours, read-out: AUCt, geometric LS mean (converted)): 6470 ng·h/mL | AUC(0-inf) ([1]; Group 2 mild renal impairment, read-out: AUC∞, geometric LS mean): 6670 ng·h/mL | AUC(0-inf) ([1]; Group 2 mild renal impairment, read-out: AUC∞, mean ± SD (%CV)): 6840 ng·h/mL | Cmax ([1]; Group 2 mild renal impairment, read-out: Cmax, geometric LS mean): 510 ng/mL | Cmax ([1]; Group 2 mild renal impairment, read-out: Cmax, mean ± SD (%CV)): 522 ng/mL | Vd/F ([1]; Group 2 mild renal impairment): 147 L | Tmax ([1]; Group 2 mild renal impairment): 1.5 h | half-life ([1]; Group 2 mild renal impairment): 9.1 ± 1.6 h | AUC(0-t) ([1]; Group 3 moderate renal impairment, over 48 h, read-out: AUCt, mean ± SD (%CV)): 9230 ng·h/mL | AUC(0-t) ([1]; Group 3 moderate renal impairment, over 48 hours, read-out: AUCt, geometric LS mean (converted)): 8960 ng·h/mL | AUC(0-inf) ([1]; Group 3 moderate renal impairment, read-out: AUC∞, geometric LS mean): 10000 ng·h/mL | AUC(0-inf) ([1]; Group 3 moderate renal impairment, read-out: AUC∞, mean ± SD (%CV)): 10500 ng·h/mL | Cmax ([1]; Group 3 moderate renal impairment, read-out: Cmax, geometric LS mean): 503 ng/mL | Cmax ([1]; Group 3 moderate renal impairment, read-out: Cmax, mean ± SD (%CV)): 517 ng/mL | Vd/F [1, 3]: 152 L | Tmax [1, 3]: 1.5 h | half-life [1, 3]: 14.3 ± 4.5 h | AUC(0-t) ([1]; Group 4 severe renal impairment, over 72 hours, read-out: AUCt, geometric LS mean (converted)): 15500 ng·h/mL | AUC(0-inf) ([1]; Group 4 severe renal impairment, read-out: AUC∞, geometric LS mean): 19100 ng·h/mL | AUC(0-inf) ([1]; Group 4 severe renal impairment, read-out: AUC∞, mean ± SD (%CV)): 23600 ng·h/mL | Cmax ([1]; Group 4 severe renal impairment, read-out: Cmax, geometric LS mean): 533 ng/mL | Cmax ([1]; Group 4 severe renal impairment, read-out: Cmax, mean ± SD (%CV)): 553 ng/mL | Vd/F [1, 4]: 157 L | Tmax [1, 4]: 2 h | half-life [1, 4]: 29.6 ± 14.4 h | AUC(0-inf) ([1]; Group 5.1 ESRD without hemodialysis, n=3, read-out: AUC∞, geometric LS mean): 56300 ng·h/mL | Vd/F [1, 7]: 154 L | half-life [1, 7]: 100 h | AUC(0-t) ([1]; Group 5.1 ESRD without hemodialysis, over 72 hours, read-out: AUCt, geometric LS mean (converted)): 25300 ng·h/mL | Cmax ([1]; Group 5.1 ESRD without hemodialysis, read-out: Cmax, geometric LS mean): 469 ng/mL | Cmax ([1]; Group 5.1 ESRD without hemodialysis, read-out: Cmax, mean ± SD (%CV)): 474 ng/mL | Tmax [1, 5]: 3.3 h | AUC(0-inf) ([1]; Group 5.2 ESRD with hemodialysis, n=6, read-out: AUC∞, geometric LS mean): 65300 ng·h/mL | Vd/F [1, 8]: 231 L | half-life [1, 8]: 165 h | AUC(0-t) ([1]; Group 5.2 ESRD with hemodialysis, over 72 hours, read-out: AUCt, geometric LS mean (converted)): 18700 ng·h/mL | Cmax ([1]; Group 5.2 ESRD with hemodialysis, read-out: Cmax, geometric LS mean): 390 ng/mL | Cmax ([1]; Group 5.2 ESRD with hemodialysis, read-out: Cmax, mean ± SD (%CV)): 396 ng/mL | Tmax [1, 6]: 1.5 h | AUC0-inf, fold compared with normal renal function ([1]; mild renal impairment): ~1.53 fold | t½, fold increase compared with normal renal function ([1]; mild renal impairment): approximately 1.2 fold | AUC0-inf, fold compared with normal renal function ([1]; moderate renal impairment): ~2.29 fold | t½, fold increase compared with normal renal function ([1]; moderate renal impairment): ~1.9 fold | AUC0-inf, fold compared with normal renal function ([1]; severe renal impairment): ~4.39 fold | t½, fold increase compared with normal renal function ([1]; severe renal impairment): ~3.9 fold | adverse effects (headache, nausea, decreased appetite, anxiety and others), dependence on dose [2]: dose-dependent
